Our source for the IC50 values is US20160083400A1, “TRICYCLIC GUANIDINE DERIVATIVE” (Sunovion Pharmaceuticals Inc., priority 2014, published 2016).

Usually IC50 stands for the point on the concentration scale where inhibition reaches its midpoint. A lower IC50 goes with inhibition by little substance.

A value given as a limit tells only on which side of the number the result lay.

Chain of PDE1C (Q14123 whole entry): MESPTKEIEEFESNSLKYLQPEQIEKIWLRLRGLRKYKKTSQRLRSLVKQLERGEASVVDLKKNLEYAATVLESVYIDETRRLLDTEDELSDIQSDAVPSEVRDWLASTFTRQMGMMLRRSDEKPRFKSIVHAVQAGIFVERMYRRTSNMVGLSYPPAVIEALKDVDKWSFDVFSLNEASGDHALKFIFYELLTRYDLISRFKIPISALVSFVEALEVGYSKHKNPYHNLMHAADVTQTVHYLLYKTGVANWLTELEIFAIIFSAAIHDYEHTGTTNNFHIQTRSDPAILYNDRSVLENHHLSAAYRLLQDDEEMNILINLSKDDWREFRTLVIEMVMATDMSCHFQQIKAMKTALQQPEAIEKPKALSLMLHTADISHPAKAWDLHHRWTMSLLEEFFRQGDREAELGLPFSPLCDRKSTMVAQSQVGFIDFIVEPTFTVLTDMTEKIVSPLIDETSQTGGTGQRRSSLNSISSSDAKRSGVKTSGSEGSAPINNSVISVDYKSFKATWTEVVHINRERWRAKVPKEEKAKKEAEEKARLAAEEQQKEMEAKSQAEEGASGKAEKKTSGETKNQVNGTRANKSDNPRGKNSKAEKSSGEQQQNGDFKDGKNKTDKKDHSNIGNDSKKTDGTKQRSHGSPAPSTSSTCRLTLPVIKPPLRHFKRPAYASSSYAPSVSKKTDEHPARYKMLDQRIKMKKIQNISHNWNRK
Chain of PDE1A (PDE 1A3) (P54750 whole entry, canonical isoform): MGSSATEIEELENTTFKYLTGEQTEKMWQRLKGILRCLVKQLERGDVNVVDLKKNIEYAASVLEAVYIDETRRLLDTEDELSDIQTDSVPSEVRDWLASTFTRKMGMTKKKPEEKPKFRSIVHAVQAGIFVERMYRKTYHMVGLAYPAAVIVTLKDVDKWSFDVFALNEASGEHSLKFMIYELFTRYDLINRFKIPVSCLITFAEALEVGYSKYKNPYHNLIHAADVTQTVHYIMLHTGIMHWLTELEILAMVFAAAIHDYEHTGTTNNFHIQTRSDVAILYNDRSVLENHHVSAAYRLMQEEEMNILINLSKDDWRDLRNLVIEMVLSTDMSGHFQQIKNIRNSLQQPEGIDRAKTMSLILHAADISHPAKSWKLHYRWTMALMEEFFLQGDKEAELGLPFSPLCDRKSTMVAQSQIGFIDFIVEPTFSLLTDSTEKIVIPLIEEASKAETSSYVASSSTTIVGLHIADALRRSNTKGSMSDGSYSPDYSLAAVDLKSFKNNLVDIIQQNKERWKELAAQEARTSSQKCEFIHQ

One assay concerns the target PDE1A (PDE 1A3) (Homo sapiens, UniProt P54750). Briefly: In vitro HTRF PDE1 inhibition assay (PDE1A). Format: biochemical. The note with it: PDE1A (1A3); 100 nM cyclic GMP, calmodulin, 45 minutes at 37° C. The text has this: (§1) An exemplary procedure for the in vitro Homogenous Time Resolved Fluorescence (HTRF) assay, which can be used to determine the inhibitory action of compounds of the invention toward PDE1 or its isoforms, follows.
(§2) The HTRF PDE1 assay utilized the HTRF technology, which is based on the competition between unlabeled cyclic nucleotide and cyclic nucleotide labeled with XL665 for the binding to cyclic nucleotide-specific antibody labeled with cryptate. The HTRF signal is thus inversely proportional to the concentration of cyclic nucleotide being measured. Since phosphodiesterases break down cyclic nucleotides the HTRF signal was used to determine PDE activity.
(§3) The Cisbio cGMP HTRF assay kit (Cat no: 62GM2PEC) was utilized. Cyclic GMP was diluted to 200 nM in HTRF assay buffer (1 mM CaCl2, 10 mM MgCl2, 10 mM Tris-HCl, 0.1% BSA, pH7.4). 10 μl of compound or DMSO was diluted in 200 nM cyclic GMP solution and added to wells of a 96 well white plate to give 100 nM cyclic GMP in 1% DMSO final concentration. PDE (1A3, 1B or 1C) was diluted to 2× working concentration in HTRF assay buffer with 4 μg/ml Calmodulin, and 10 μl was added to initiate the reaction. The plate was then incubated for 45 minutes at 37° C. d2-Labelled cyclic GMP and anti-cGMP cryptate were diluted in 50 mM phosphate buffer, 0.8M KF, 1% Triton X100, 0.2% BSA, pH7.0. Following incubation 10 μl d2-cGMP, then 10 μl anti cGMP cryptate were added to each well and the plate was incubated for 45 minutes at rt. The plate was then read on Perkin Elmer Victor at 2 different FRET readings ex/emm 340 nm/665 nm and 340 nm/615 nm.
(§4) Compounds having an IC50 of <1 μM, are denoted as +++. Compounds having an IC50 of 1-10 μM, are denoted as ++. Compounds having an IC50 of 10-100 μM, are denoted as +.
(TR-FRET usually uses a lanthanide donor and a delayed reading to cut background.)
In turn, `O=c1c2cnn(C3CCCC3)c2nc2n1CCC(c1ccc(Cl)cc1)N2` (stereo not drawn) [Example 4] had an IC50 of 1 to 10 µM. The same measure, in the same setting: as for `O=c1c2cnc([C@H]3CCOC3)n2nc2n1CC[C@H](c1ccc(Cl)cc1)N2` [Example 225], the figure is < 1 µM. For `O=c1c2cnc(C3(C(F)(F)F)CC3)n2nc2n1CC[C@H](c1ccc(Cl)cc1)N2` [Example 238], the IC50 was < 1 µM.

Turning to `COc1ccc(C2CCn3c(nn4c(C5CCOCC5)ncc4c3=O)N2)cc1` (stereo not drawn) [Example 57], the IC50 was < 1 µM.

A further assay concerns the target PDE1C (Homo sapiens, UniProt Q14123). Briefly: In vitro HTRF PDE1 inhibition assay (PDE1C). Format: biochemical.
Conditions: not given
From the text: as §1, §2, §3, §4
`O=c1c2cnn(C3CCCC3)c2nc2n1CCC(c1ccc(Cl)cc1)N2` (stereo not drawn) [Example 4] came in with an IC50 of 1 to 10 µM. `O=c1c2cnc([C@H]3CCOC3)n2nc2n1CC[C@H](c1ccc(Cl)cc1)N2` [Example 225]: the concentration for half-maximal inhibition (IC50) was < 1 µM. Regarding `O=c1c2cnc(C3(C(F)(F)F)CC3)n2nc2n1CC[C@H](c1ccc(Cl)cc1)N2` [Example 238], the IC50 lay in the range of 1 to 10 µM. In the case of `COc1ccc(C2CCn3c(nn4c(C5CCOCC5)ncc4c3=O)N2)cc1` (stereo not drawn) [Example 57], the IC50 is < 1 µM.

The target of another assay is PDE1B (Homo sapiens, UniProt Q01064). The experiment in a line: In vitro HTRF PDE1 inhibition assay (PDE1B). Format: biochemical. As to conditions: 100 nM cyclic GMP, calmodulin, 45 minutes at 37° C.
Chain of PDE1B (Q01064 whole entry): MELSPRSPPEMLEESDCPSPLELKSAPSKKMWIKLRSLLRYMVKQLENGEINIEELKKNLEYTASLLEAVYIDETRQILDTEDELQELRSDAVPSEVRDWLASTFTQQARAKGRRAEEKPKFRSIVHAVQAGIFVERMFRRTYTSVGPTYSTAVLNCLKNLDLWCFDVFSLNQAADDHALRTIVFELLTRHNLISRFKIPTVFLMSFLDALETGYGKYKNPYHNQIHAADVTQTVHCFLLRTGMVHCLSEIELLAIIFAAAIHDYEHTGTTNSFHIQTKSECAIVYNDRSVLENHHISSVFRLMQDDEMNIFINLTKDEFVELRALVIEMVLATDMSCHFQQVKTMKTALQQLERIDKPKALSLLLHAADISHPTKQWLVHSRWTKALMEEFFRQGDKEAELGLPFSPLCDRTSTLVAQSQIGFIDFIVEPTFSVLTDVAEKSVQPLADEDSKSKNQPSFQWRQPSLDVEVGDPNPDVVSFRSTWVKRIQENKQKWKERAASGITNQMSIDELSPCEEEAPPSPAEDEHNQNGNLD
Description: The Cisbio cGMP HTRF assay kit (Cat no: 62GM2PEC) was utilized. Cyclic GMP was diluted to 200 nM in HTRF assay buffer (1 mM CaCl2, 10 mM MgCl2, 10 mM Tris-HCl, 0.1% BSA, pH7.4). […] PDE (1A3, 1B or 1C) was diluted to 2× working concentration in HTRF assay buffer with 4 μg/ml Calmodulin, and 10 μl was added to initiate the reaction. The plate was then incubated for 45 minutes at 37° C. d2-Labelled cyclic GMP and anti-cGMP cryptate were diluted in 50 mM phosphate buffer, 0.8M KF, 1% Triton X100, 0.2% BSA, pH7.0. Following incubation 10 μl d2-cGMP, then 10 μl anti cGMP cryptate were added to each well and the plate was incubated for 45 minutes at rt. The plate was then read on Perkin Elmer Victor at 2 different FRET readings ex/emm 340 nm/665 nm and 340 nm/615 nm.
On to `O=c1c2cnn(C3CCCC3)c2nc2n1CCC(c1ccc(Cl)cc1)N2` (stereo not drawn) [Example 4], for which the IC50 was < 1 µM. Same read-out and setting: as for `O=c1c2cnc([C@H]3CCOC3)n2nc2n1CC[C@H](c1ccc(Cl)cc1)N2` [Example 225], the figure is < 1 µM; as for `O=c1c2cnc(C3(C(F)(F)F)CC3)n2nc2n1CC[C@H](c1ccc(Cl)cc1)N2` [Example 238], < 1 µM. Turning to `COc1ccc(C2CCn3c(nn4c(C5CCOCC5)ncc4c3=O)N2)cc1` (stereo not drawn) [Example 57], the IC50 is < 1 µM. In turn, `O=c1c2noc(C3CCOCC3)c2nc2n1CC[C@H](c1ccc(Cl)cc1)N2` [Example 155] yielded an IC50 of 1 to 10 µM. As to `Cc1cc(C2CCn3c(nc4c(cnn4C(C)C)c3=O)N2)ccn1` (stereo not drawn) [Example 26], the IC50 fell in the range of 1 to 10 µM. On to `CC1(c2ncc3c(=O)n4c(nn23)N[C@@H](c2ccc(Cl)cc2)CC4)CCCC1` [Example 245], for which the IC50 is < 1 µM. Still for that read-out and setting: as for `O=c1c2cnc(C3CCOCC3)n2nc2n1CC[C@H](c1ccc(Cl)cc1F)N2` [Example 125], the figure is < 1 µM; as for `CC(C)(C)c1ncc2c(=O)n3c(nn12)NC(c1ccc(Cl)cc1)CC3` (stereo not drawn) [Example 68], < 1 µM.

As to `COCc1ncc2c(=O)n3c(nn12)N[C@@H](c1ccc(Cl)cc1)CC3` [Example 244], the concentration for half-maximal inhibition (IC50) was < 1 µM. As to `O=c1c2cnc(C3CC3)n2nc2n1CCC(c1ccc(Cl)cc1)N2` (stereo not drawn) [Example 67], the IC50 is < 1 µM.

Compound `O=c1c2ccnc(C3CCOCC3)c2nc2n1CCC(c1ccc(Cl)cc1)N2` (stereo not drawn) [Example 172] came in with an IC50 of 1 to 10 µM. Same read-out and setting: as for `O=c1c2cnc(C3CCOCC3)n2nc2n1C[C@@H](c1ccc(Cl)cc1)N2` [Example 138], the figure is < 1 µM. Turning to `Cc1ccc(CC2CCn3c(nc4c(cnn4C(C)C)c3=O)N2)cn1` (stereo not drawn) [Example 33], the IC50 was in the range of 1 to 10 µM. Regarding `COc1ccc([C@H]2CN3C(=O)c4cnc(C5(C(F)(F)F)CC5)n4NC3=N2)cc1` [Example 256, (2S)-2-(4-Methoxyphenyl)-8-[1-(trifluoromethyl)cyclopropyl]-2,10-dihydro-3H,5H-diimidazo[2,1-c:5′,1′-f][1,2,4]triazin-5-one], the IC50 was < 1 µM. Consider `CC(C)c1onc2c(=O)n3c(nc12)N[C@@H](c1ccc(Cl)cc1)CC3` [Example 152, (6R)-6-(4-Chlorophenyl)-3-isopropyl-4,6,7,8-tetrahydro-10H-[1,2]oxazolo[4,3-d]pyrimido[1,2-a]pyrimidin-10-one], for which the IC50 lay in the range of 1 to 10 µM.

Consider `CC(C)n1ncc2c(=O)n3c(nc21)NC(c1ccc(C#N)cc1)C3` (stereo not drawn) [compound 87], for which the IC50 was < 1 µM. Regarding `O=c1c2cnn(C3CCC(F)(F)CC3)c2nc2n1CCC(c1ccc(Cl)cc1)N2` (stereo not drawn) [Example 39], the IC50 lay in the range of 1 to 10 µM. As to `O=c1c2cnc(C3CCC3)n2nc2n1CCC(c1ccc(C(F)(F)F)cc1)N2` (stereo not drawn) [Example 64], the IC50 was < 1 µM. For `CCC(CC)n1ncc2c(=O)n3c(nc21)NC(c1ccc(Cl)cc1)CC3` (stereo not drawn) [Example 36], the concentration for half-maximal inhibition (IC50) was < 1 µM.

On to `CC(C)n1ncc2c(=O)n3c(nc21)N[C@H](c1ccc(Cl)cc1)CC3` [Example 28], for which the 50% inhibitory concentration (IC50) fell in the range of 1 to 10 µM.

For `Cc1cncc([C@H]2CCn3c(nn4c(C5CCCC5)ncc4c3=O)N2)c1` [Example 132], the IC50 is < 1 µM. In the case of `O=c1c2cnc(C3CCOCC3)n2nc2n1CC[C@H](c1cccc(Cl)c1)N2` [Example 127], the IC50 was < 1 µM.

As for `Cc1ncc(C2CCn3c(nc4c(cnn4C(C)C)c3=O)N2)cn1` (stereo not drawn) [Example 25], the IC50 was 1 to 10 µM. Same read-out and setting: as for `CC(C)n1ncc2c(=O)n3c(nc21)NC(c1ccc(C#N)cc1)CC3` (stereo not drawn) [compound 88], the figure is < 1 µM; as for `O=c1c2cnc(C3CCCC3)n2nc2n1CC[C@@H](c1cncc(Cl)c1)N2` [Example 134], < 1 µM. Take `CC(=O)c1ncc2c(=O)n3c(nn12)N[C@@H](c1ccc(Cl)cc1)CC3` [Example 252, (2R)-9-Acetyl-2-(4-chlorophenyl)-1,2,3,4-tetrahydro-6H-imidazo[5,1-f]pyrimido[2,1-c][1,2,4]triazin-6-one]: the IC50 fell in the range of 1 to 10 µM. In the case of `O=C1c2cnc([C@H]3CCOC3)n2NC2=N[C@@H](c3ccc(Cl)cc3)CN12` [Example 186, (2S)-2-(4-Chlorophenyl)-8-[(3R)-tetrahydro-3-furanyl]-2,10-dihydro-3H,5H-diimidazo[2,1-c:5′,1′-f][1,2,4]triazin-5-one], the IC50 was < 1 µM. Consider `CC(C)c1ncc2c(=O)n3c(nn12)N[C@@H](c1ccc(O)cc1)C3` [Example 261, (2S)-2-(4-Hydroxyphenyl)-8-isopropyl-2,10-dihydro-3H,5H-diimidazo[2,1-c:5′,1′-f][1,2,4]triazin-5-one], for which the IC50 is < 1 µM. The same measure, in the same setting: as for `COc1cncc([C@@H]2CCn3c(nn4c(C5CCCC5)ncc4c3=O)N2)c1` [Example 131], the figure is < 1 µM; as for `CC(C)c1onc2c(=O)n3c(nc12)NC(c1cccc(Cl)c1)CC3` (stereo not drawn) [Example 158], 1 to 10 µM; as for `CC(C)c1nccc2c(=O)n3c(nc12)NC(c1ccc(Cl)cc1)CC3` (stereo not drawn) [Example 173], < 1 µM. `O=c1c2cnc(C3CCOCC3)n2nc2n1CC[C@@H](c1ccc(Cl)cc1F)N2` [Example 124] gave an IC50 of 1 to 10 µM. On to `O=C1c2cnc([C@@H]3CCOC3)n2NC2=N[C@@H](c3ccc(Cl)cc3)CN12` [Example 185, (2S)-2-(4-Chlorophenyl)-8-[(3S)-tetrahydro-3-furanyl]-2,10-dihydro-3H,5H-diimidazo[2,1-c:5′,1′-f][1,2,4]triazin-5-one], for which the IC50 was < 1 µM.

`Cc1ncc(CC2CCn3c(nc4c(cnn4C4CCCC4)c3=O)N2)cn1` (stereo not drawn) [Example 71] returned an IC50 of 1 to 10 µM.

`COc1ccc(CC2CCn3c(nc4c(cnn4C4CCOCC4)c3=O)N2)cc1` (stereo not drawn) [Example 16]: the IC50 was < 1 µM. Take `O=c1c2cnn(C3CCCC3)c2nc2n1CCC(c1ccncc1)N2` (stereo not drawn) [Example 3]: the IC50 fell in the range of 1 to 10 µM. In turn, `CC(C)c1onc2c(=O)n3c(nc12)NC(c1ccc(C#N)cc1)CC3` (stereo not drawn) [Example 157] yielded an IC50 of 1 to 10 µM. On the same count and under the same terms, as for `CC(C)n1ncc2c(=O)n3c(nc21)NCCC3` [Example 254, 1-Isopropyl-6,7,8,10-tetrahydropyrazolo[3,4-d]pyrimido[1,2-a]pyrimidin-4(1H)-one], the figure is < 1 µM; as for `COc1ccc([C@H]2CCn3c(nn4c(C(C)C)ncc4c3=O)N2)cc1` [Example 85], < 1 µM; as for `COc1cc(C2CCn3c(nc4c(cnn4C(C)C)c3=O)N2)ccc1F` (stereo not drawn) [Example 11], < 1 µM. As to `O=c1c2cnn(C3CCCC3)c2nc2n1CC[C@H](c1ccc(Cl)cc1)N2` [Example 40], the IC50 is < 1 µM. On the same count and under the same terms, as for `O=c1c2cnc(C(F)(F)F)n2nc2n1C[C@H](c1ccc(Cl)cc1)N2` [Example 251, (2S)-2-(4-Chlorophenyl)-8-(trifluoromethyl)-2,10-dihydro-3H,5H-diimidazo[2,1-c:5′,1′-f][1,2,4]triazin-5-one], the figure is 1 to 10 µM.

`CO[C@H]1CC[C@@H](c2ncc3c(=O)n4c(nn32)N[C@@H](c2ccc(Cl)cc2)CC4)CC1` [Example 236] had a 50% inhibitory concentration (IC50) of 1 to 10 µM. Still for that read-out and setting: as for `CCCc1ncc2c(=O)n3c(nn12)N[C@@H](c1ccc(Cl)cc1)CC3` [Example 167], the figure is < 1 µM.

As to `CC(C)c1ncc2c(=O)n3c(nn12)NC(c1ccc(Cl)nc1)C3` (stereo not drawn) [Example 181, 2-(6-Chloro-3-pyridinyl)-8-isopropyl-2,10-dihydro-3H,5H-diimidazo[2,1-c:5′,1′-f][1,2,4]triazin-5-one], the IC50 is < 1 µM. For the compound `Cc1cncc([C@@H]2CCn3c(nn4c(C5CCCC5)ncc4c3=O)N2)c1` [Example 133], the IC50 was < 1 µM. In the case of `COc1ccc([C@H]2Cn3c(nc4c(cnn4C(C)C)c3=O)N2)cc1` [Example 146], the IC50 was < 1 µM. `CC(C)(C)n1ncc2c(=O)n3c(nc21)NC(c1ccc(Cl)cc1)CC3` (stereo not drawn) [Example 45] displayed an IC50 of 10 to 100 µM. Same read-out and setting: as for `CC(C)c1ncc2c(=O)n3c(nn12)NC(c1ccc(C#N)cn1)CC3` (stereo not drawn) [Example 92], the figure is < 1 µM; as for `O=c1c2cnn(C3CCOCC3)c2nc2n1CC(c1ccc(F)cc1)N2` (stereo not drawn) [Example 76], < 1 µM. The same measure, in the same setting: as for `O=c1c2cnn(C3CCOCC3)c2nc2n1CCC(Cc1ccc(Cl)cc1)N2` (stereo not drawn) [Example 17], the figure is < 1 µM.
